The values that follow come from US20090275562A1 (Cypress Biosciences, Inc., priority 2008, published 2009).

Data set [1] can be described thus: Example 1A clinical study, 6-week weight gain/loss with mirtazapine and reboxetine. The data set is classed as in vivo, human. The following applies: for Mean Change from Baseline (weight): Week 6, 4 mg reboxetine morning, 15 mg mirtazapine evening, female volunteers; for mean change in body mass over the course of the study, in words (FIGS. 1-4): completers with fasted body mass at baseline and end of week 6; for 6-week weight gain (or loss), in words: versus placebo, 6 weeks of therapy. On the procedure: All medications were administered in an over-encapsulated format that ensures blinding of study participants, staff and investigators. All subjects received a total of 6 weeks of therapy. Vital signs and weight assessments were made at clinic visits at the beginning and end of the study and at various times during the study. Patient outcomes of sleep quality and propensity were evaluated using the Karolinska Sleepiness Scale (KSS) and the Epworth Sleepiness Scale (ESS). Standard safety review was also conducted for each of the subjects, including recordation of any adverse events.
Sensitivity analysis was performed for completers and for intention-to-treat, last observation carried forward ([…]).

Data set [2] is described as follows: Example 1 tolerability study of mirtazapine and reboxetine in healthy subjects. The data set is classed as in vivo, human. As to conditions: 6 weeks; 15 mg mirtazapine evening, 2 or 4 mg reboxetine morning; present-tense example. On the procedure: (§1) The subjects receive 2 capsules per day, one in the morning and one at bedtime. […] All medications are administered in an over-encapsulated format that ensures blinding of study participants, staff and investigators. All subjects are scheduled to receive a total of 6 weeks of therapy, and are required to return to the clinics after 1, 2, 4 and 6 weeks of therapy. Patients are required to complete paper self-assessments, electronic diary assessments, computer based cognitive testing, as well as vital signs and weight assessments at the clinic visits.

Data set [3] is described as follows: Example 4 tolerability study of mirtazapine and betahistine in healthy subjects. As to conditions: 6 weeks; 15 mg mirtazapine evening, 8 or 16 mg betahistine morning; present-tense example. It is filed as in vivo, human. On the procedure:
as §1

Data set [4] deals with 5-HT and NA reuptake sites. As to conditions: from U.S. Pat. No. 6,642,235; cited from earlier work.
For data set [5] the following is noted: controlled studies, cited from earlier work.
[6] abbreviates: Completers and MF (morning fasting) weight.

Regarding `CCOc1ccccc1OC(c1ccccc1)C1CNCCO1` (racemic) [reboxetine, 2-[(2-ethoxyphenoxy)-phenyl-methyl]morpholine], the “Mean Change from Baseline (weight)” value in data set [1] (setting [6]) is -1.61 kg; in data set [1] (Completers and NMF weight), -1.7 kg; in data set [1] (ITT-LOCF & NMF weight), -1.693 kg; in data set [1] (ITT-LOCF and MF weight), -1.685 kg. The “mean change in body mass over the course of the study, in words (FIGS. 1-4)” value in data set [1] is recorded as “decrease in body mass”. Besides, the “6-week weight gain (or loss), in words” value in data set [1] is on record as “weight loss as compared to placebo-only”. The “side effects caused, in words” value is “insomnia, nausea/vomiting, and weight loss” in data set [2]; “insomnia, nausea/vomiting, and weight loss” in data set [3]. The “norepinephrine reuptake inhibitor selectivity (Ki5HT/KiNA)” value in data set [4] is listed as “about 80”.
Regarding `CN(C)CCC=C1c2ccccc2CCc2ccccc21` [amitriptyline], in data set [5] (placebo 0%), the “weight gain of greater than or equal to 7% of body weight, share of patients” value is 5.9%. Besides, the “appetite increase reported, share of patients” value in data set [5] (placebo 2%) was 6%.
`CN1CCN2c3ncccc3Cc3ccccc3C2C1` (stereo not drawn) [mirtazapine, 1,2,3,4,10,14b-hexahydro-2-methylpyrazino[2,1-a]pyrido[2,3-c]benzazepine]: in data set [1] (6 weeks, text summary of the tables (values of Table 1A-1, mean ± standard error)), the “increase in body weight / weight gain” value came out at 2.215 ± 0.385 kg. The “Mean Change from Baseline (weight)” value in data set [1] (setting [6]) worked out at 2.215 kg; in data set [1] (Completers and NMF weight) it was 1.943 kg; in data set [1] (ITT-LOCF & NMF weight) it was 1.8 kg; in data set [1] (ITT-LOCF and MF weight), 2.043 kg. Moreover, in data set [1], the “mean change in body mass over the course of the study, in words (FIGS. 1-4)” value is listed as “marked increase in body mass”. Further, the “6-week weight gain (or loss), in words” value in data set [1] is recorded as “significantly greater weight gain”. The “side effects caused, in words” value was “weight gain, sedation, and cognitive deficits” in data set [2]; “weight gain, sedation, and cognitive deficits” in data set [3].
Turning to (S,S)reboxetine, in data set [4], the “norepinephrine reuptake inhibitor selectivity (Ki5HT/KiNA)” value was “about 12,700”.
